From patent US12631626B2, “Continuous real-time monitoring of biomolecules in live subjects” (priority 2020, dated 2026)

Experiment: Glucose measurement (RTCM and glucose meter) in an awake diabetic rat after insulin injection
Assay type: in vivo
Details: conscious diabetic rat, after 40 minutes, same amount of insulin as in anesthetized rats
Procedure: FIGS. 6A-6B show glucose and insulin measurements in an awake diabetic rat. An awake diabetic rat was injected with human insulin, with blood samples collected at t=0, 5, 20, and 40 min after injection. Glucose levels were measured using RTCM and glucose meter (FIG. 6A), and insulin levels were measured using RTCM and ELISA (FIG. 6B).
Male Sprague Dawley rats (Charles River) were used for experiments. Animal studies were performed in accordance with the guidelines for the care and use of laboratory animals; all protocols were approved by the Stanford Institutional Animal Care and Use Committee. The protocol used for STZ induction adapted from the protocol by Kenneth K. Wu and Youming Huan (Wu, K. K., & Huan, Y. Streptozotocin-induced diabetic models in mice and rats. Curr. Protoc. Pharmacol. 5, 1-14 (2008)). Briefly, male Sprague Dawley rats 160-230 g (8-10 weeks) were weighed and fasted 6-8 hours prior to treatment with STZ. STZ was diluted to 10 mg/mL in the sodium citrate buffer immediately before injection. STZ solution was injected intraperitoneally at 65 mg/kg into each rat. Rats were provided with water containing 10% sucrose for 24 hours after injection with STZ. Rat blood glucose levels were tested for hyperglycemia daily after the STZ treatment via tail vein blood collection using a handheld Bayer Contour Next glucose monitor (Bayer). […]

insulin: human insulin injected into an awake diabetic rat, same amount as in anesthetized rats; probably Humulin R
Decrease in glucose level: 7 mM
